Our source for the EC50 values is patent US20150291598A1 (NOVARTIS AG, priority 2012, published 2015).

Structures are written as SMILES.

One experiment relates to P. falciparum (NF54 or 3D7 strain). The experiment in a line: Assay for P. falciparum proliferation in infected human blood cells (SYBR Green). The format is cell-based, Plasmodium falciparum. The settings on record: NF54 or 3D7 infected human erythrocytes, 72 hours; read-out: EC50 (nM), inhibitory efficacy in delaying P. falciparum proliferation in infected human blood cells. In short, it runs like this: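 Infected erythrocytes (NF54 or 3D7; final 2.5% hematocrit, 0.3% parasitemia) were incubated with compounds for 72 h at 37 °C in low oxygen (3% O2, 4% CO2, 93% N2).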
Regarding `O=C(c1cn2c(-c3ccc(C(F)(F)F)cc3)cnc2cn1)N1CCOc2ccccc21` [Compound 306, ({3-[4-(trifluoromethyl)phenyl]imidazo[1,2-a]pyrazin-6-yl}carbonyl)-3,4-dihydro-2H-1,4-benzoxazine], the EC50 turned out to be 607 nM.

The same experiment, now with this note: Plasmodium falciparum, Erythrocyte, 72 h, NF54 or 3D7 infected human erythrocytes, 72 hours; read-out: EC50 (nM), inhibitory efficacy in delaying P. falciparum proliferation in infected human blood cells.
On to `COc1ncc(N(C)C(=O)c2cn3c(-c4ccc(C(F)(F)F)cc4)cnc3cn2)cc1C` [Compound 288, N-(6-methoxy-5-methylpyridin-3-yl)-N-methyl-3-[4-(trifluoromethyl)phenyl]imidazo[1,2-a]pyrazine-6-carboxamide], for which the EC50 turned out to be 565 nM. On the same count and under the same terms, next, `Cc1ccc(C(=O)N(C)c2cn3c(-c4ccc(C(F)(F)F)cc4)cnc3cn2)cc1` [Compound 289, N,4-dimethyl-N-{3-[4-(trifluoromethyl)phenyl]imidazo[1,2-a]pyrazin-6-yl}benzamide]: 1500 nM. On the same count and under the same terms, next, `COc1cccc(N(C)C(=O)c2cn3c(-c4ccc(C(F)(F)F)cc4)cnc3cn2)n1` [Compound 290, N-(6-methoxypyridin-2-yl)-N-methyl-3-[4-(trifluoromethyl)phenyl]imidazo[1,2-a]pyrazine-6-carboxamide]: 784 nM; `CN(C)CCNC(=O)c1ccc(-c2cnc3cnc(C(=O)N(C)c4ccc(C#N)cc4)cn23)cc1` [Compound 291, N-(4-cyanophenyl)-3-(4-{[2-(dimethylamino)ethyl]carbamoyl}phenyl)-N-methylimidazo[1,2-a]pyrazine-6-carboxamide]: 1160 nM; `CN(C(=O)c1cn2c(-c3ccc(C(F)(F)F)cc3)cnc2cn1)c1ccc(C#N)cc1F` [Compound 293, N-(4-cyano-2-fluorophenyl)-N-methyl-3-[4-(trifluoromethyl)phenyl]imidazo[1,2-a]pyrazine-6-carboxamide]: 76 nM. The same measure, in the same setting: next, `CN(C(=O)N1CCC(C)(C)CC1)c1cn2c(-c3ccc(C(F)(F)F)cc3)cnc2cn1` [Compound 294, N,4,4-trimethyl-N-{3-[4-(trifluoromethyl)phenyl]imidazo[1,2-a]pyrazin-6-yl}piperidine-1-carboxamide]: 2120 nM. On to `CN(C(=O)c1cn2c(-c3ccc(NC(=O)CN)nc3)cnc2cn1)c1ccc(C#N)cc1` [Compound 295, 3-[6-(2-aminoacetamido)pyridin-3-yl]-N-(4-cyanophenyl)-N-methylimidazo[1,2-a]pyrazine-6-carboxamide], for which the EC50 turned out to be 237 nM. Still for that read-out and setting: the same measure for `COc1cc(N(C)C(=O)c2cn3c(-c4ccc(C(F)(F)F)cc4)cnc3cn2)ccn1` [Compound 296, N-(2-methoxypyridin-4-yl)-N-methyl-3-[4-(trifluoromethyl)phenyl]imidazo[1,2-a]pyrazine-6-carboxamide]: 1280 nM.

As to `Cc1ccc(-c2cnc3cnc(C(=O)N(C)c4ccc(C#N)cc4)cn23)cn1` [Compound 297, N-(4-cyanophenyl)-N-methyl-3-(6-methylpyridin-3-yl)imidazo[1,2-a]pyrazine-6-carboxamide], the EC50 was found to be 1290 nM.

Take `CCn1nccc1N(C)C(=O)c1cn2c(-c3ccc(C(F)(F)F)cc3)cnc2cn1` [Compound 298, N-(1-ethyl-1H-pyrazol-5-yl)-N-methyl-3-[4-(trifluoromethyl)phenyl]imidazo[1,2-a]pyrazine-6-carboxamide]: the EC50 amounted to 1070 nM. On the same count and under the same terms, next, `Cc1cc(N(C)C(=O)c2cn3c(-c4ccc(C(F)(F)F)cc4)cnc3cn2)ccn1` [Compound 299, N-methyl-N-(2-methylpyridin-4-yl)-3-[4-(trifluoromethyl)phenyl]imidazo[1,2-a]pyrazine-6-carboxamide]: 1130 nM; `CN(C(=O)c1cn2c(-c3ccc(NC(C)(C)CNC(=O)OC(C)(C)C)cc3)cnc2cn1)c1ccc(C#N)cc1` [Compound 300, tert-butyl N-{2-[(4-{6-[(4-cyanophenyl)(methyl)carbamoyl]imidazo[1,2-a]pyrazin-3-yl}phenyl)amino]-2-methylpropyl}carbamate]: 2990 nM.

`CN(C(=O)c1cn2c(-c3ccc4[nH]ccc4c3)cnc2cn1)c1ccc(Cl)nc1` [Compound 301, N-(6-chloropyridin-3-yl)-3-(1H-indol-5-yl)-N-methylimidazo[1,2-a]pyrazine-6-carboxamide]: the EC50 was determined as 1200 nM. The same measure, in the same setting: next, `COc1ccc(-c2ccc(N(C)C(=O)c3cn4c(-c5ccc(OC)cc5C)cnc4cn3)cn2)c(C)c1` [Compound 302, 3-(4-methoxy-2-methylphenyl)-N-[6-(4-methoxy-2-methylphenyl)pyridin-3-yl]-N-methylimidazo[1,2-a]pyrazine-6-carboxamide]: 1850 nM; `COc1ccncc1N(C)C(=O)c1cn2c(-c3ccc(C(F)(F)F)cc3)cnc2cn1` [Compound 303, N-(4-methoxypyridin-3-yl)-N-methyl-3-[4-(trifluoromethyl)phenyl]imidazo[1,2-a]pyrazine-6-carboxamide]: 1280 nM; `Cc1cc(N(C)C(=O)c2cn3c(-c4ccc(C(F)(F)F)cc4)cnc3cn2)cnc1Cl` [Compound 304, N-(6-chloro-5-methylpyridin-3-yl)-N-methyl-3-[4-(trifluoromethyl)phenyl]imidazo[1,2-a]pyrazine-6-carboxamide]: 452 nM.

`O=C(c1cn2c(-c3ccc(C(F)(F)F)cc3)cnc2cn1)N1CCOc2cc(F)ccc21` [Compound 305, 7-fluoro-4-({3-[4-(trifluoromethyl)phenyl]imidazo[1,2-a]pyrazin-6-yl}carbonyl)-3,4-dihydro-2H-1,4-benzoxazine]: the EC50 was found to be 457 nM. As to `CN(C(=O)c1cn2c(-c3ccc(NC(=O)C4(CN)CC4)cc3)cnc2cn1)c1ccc(C#N)cc1` [Compound 307, 3-(4-{[1-(aminomethyl)cyclopropane]amido}phenyl)-N-(4-cyanophenyl)-N-methylimidazo[1,2-a]pyrazine-6-carboxamide], the EC50 was 1070 nM.

`CN(C(=O)c1ccc(C(F)(F)F)nc1)c1cn2c(-c3ccc(C(F)(F)F)cc3)cnc2cn1` [Compound 308, N-methyl-6-(trifluoromethyl)-N-{3-[4-(trifluoromethyl)phenyl]imidazo[1,2-a]pyrazin-6-yl}pyridine-3-carboxamide]: the EC50 was determined as 2020 nM.

In the case of `Cc1ccncc1N(C)C(=O)c1cn2c(-c3ccc(C(F)(F)F)cc3)cnc2cn1` [Compound 309, N-methyl-N-(4-methylpyridin-3-yl)-3-[4-(trifluoromethyl)phenyl]imidazo[1,2-a]pyrazine-6-carboxamide], the EC50 was found to be 611 nM. On the same count and under the same terms, the same measure for `CCOc1ccnc(N(C)C(=O)c2cn3c(-c4ccc(C(F)(F)F)cc4)cnc3cn2)c1` [Compound 310, N-(4-ethoxypyridin-2-yl)-N-methyl-3-[4-(trifluoromethyl)phenyl]imidazo[1,2-a]pyrazine-6-carboxamide]: 2480 nM; for `COc1ccc(C(=O)N(C)c2cn3c(-c4ccc(C(F)(F)F)cc4)cnc3cn2)cc1` [Compound 311, 4-methoxy-N-methyl-N-{3-[4-(trifluoromethyl)phenyl]imidazo[1,2-a]pyrazin-6-yl}benzamide]: 2780 nM; for `CN(C(=O)c1cn2c(-c3cnc4[nH]ccc4c3)cnc2cn1)c1ccc(Cl)nc1` [Compound 312, N-(6-chloropyridin-3-yl)-N-methyl-3-{1H-pyrrolo[2,3-b]pyridin-5-yl}imidazo[1,2-a]pyrazine-6-carboxamide]: 2640 nM. Consider `CN(C(=O)c1cn2c(-c3ccc(C(F)(F)F)cc3)cnc2cn1)c1ccc(-n2cncn2)cc1` [Compound 313, N-methyl-N-[4-(1H-1,2,4-triazol-1-yl)phenyl]-3-[4-(trifluoromethyl)phenyl]imidazo[1,2-a]pyrazine-6-carboxamide], for which the EC50 is 1320 nM. The same measure, in the same setting: the same measure for `CN(C(=O)c1cn2c(-c3ccc(NS(C)(=O)=O)cc3)cnc2cn1)c1ccc(C#N)cc1` [Compound 314, N-(4-cyanophenyl)-3-(4-methanesulfonamidophenyl)-N-methylimidazo[1,2-a]pyrazine-6-carboxamide]: 1040 nM; for `N#Cc1ccc2c(c1)OCCN2C(=O)c1cn2c(-c3ccc(C(F)(F)F)cc3)cnc2cn1` [Compound 315, 4-({3-[4-(trifluoromethyl)phenyl]imidazo[1,2-a]pyrazin-6-yl}carbonyl)-3,4-dihydro-2H-1,4-benzoxazine-7-carbonitrile]: 2420 nM; for `CS(=O)(=O)c1ccc2c(c1)CCCN2C(=O)c1cn2c(-c3ccc(C(F)(F)F)cc3)cnc2cn1` [Compound 316, 6-methanesulfonyl-1-({3-[4-(trifluoromethyl)phenyl]imidazo[1,2-a]pyrazin-6-yl}carbonyl)-1,2,3,4-tetrahydroquinoline]: 1890 nM.

As for `CN(C(=O)c1cn2c(-c3ccc(C(F)(F)F)cc3)cnc2cn1)c1ccc(S(C)(=O)=O)cn1` [Compound 317, N-(5-methanesulfonylpyridin-2-yl)-N-methyl-3-[4-(trifluoromethyl)phenyl]imidazo[1,2-a]pyrazine-6-carboxamide], the EC50 worked out at 1900 nM. The same measure, in the same setting: the same measure for `COC(=O)Nc1ccc(-c2cnc3cnc(CN(C)c4ccc(C)cn4)cn23)cc1` [Compound 318, methyl N-[4-(6-{[methyl(5-methylpyridin-2-yl)amino]methyl}imidazo[1,2-a]pyrazin-3-yl)phenyl]carbamate]: 2310 nM; for `CN(C(=O)c1cn2c(-c3cc4ccccc4[nH]3)cnc2cn1)c1ccc(-c2cc3ccccc3[nH]2)nc1` [Compound 319, 3-(1H-indol-2-yl)-N-[6-(1H-indol-2-yl)pyridin-3-yl]-N-methylimidazo[1,2-a]pyrazine-6-carboxamide]: 3140 nM. As for `Cc1n[nH]c2ccc(-c3cnc4cnc(C(=O)N(C)c5ccc(Cl)nc5)cn34)cc12` [Compound 320, N-(6-chloropyridin-3-yl)-N-methyl-3-(3-methyl-1H-indazol-5-yl)imidazo[1,2-a]pyrazine-6-carboxamide], the EC50 was 2210 nM.
